Results: US20030220524A1, “Sulfur containing compounds” (priority 2000, published 2003)
Read-outs that look alike come from different tables or passages of the source. Each block holds one molecule with its values, some of them ahead of it.

Assays:
Type in all cases: cell-based, human
[1] = test system: B1 leukemic cell line; assay: MTT assay; conditions: 48 h, read-out: MTT50
Method: All cell lines were assayed as asynchronously growing cells. Leukemic cell lines, OCI-AML-2, OCI-AML-3 (referred to hereafter as AML-2 and AML-3, respectively), NB-4, KK, B1, G2, and W1 were cultured in alpha-minimal essential medium (α-MEM) (Princess Margaret Hospital Media Services) supplemented with 10% fetal bovine serum (FBS) (Sigma, St. Louis, Mo.). Non-transformed, diploid fibroblast lines WI38 and IMR90, were cultured in α-MEM and MEM F-15, respectively supplemented with 10% FBS. Media for IMR90 cells was also supplemented with 1.5 g/L bicarbonate and 1 mM pyruvate. Breast tumour cell lines, MDA-231, SK-BR-3, MCF-7, ZR-751, and melanoma tumour cell lines, WM9, WM983, WM793, 1232, were grown in α-MEM supplemented with 10% fetal bovine serum. Prostate tumour cell lines, DU145 and PC-3, were grown in RPMI 1640 media supplemented with 10% FBS. All cell lines were cultured in the presence of penicillin/streptomycin. Mononucleated cells were isolated from normal bone marrow using Ficoll hypaque and then T-cell depleted. T-cell depletion was performed by incubating the mononucleated bone marrow cells in α-MEM at a concentration of 2×10^7 cells/mL with 10% absor FBS and 10% (v/v) sheep red blood cells for 4 to 16 h. Absor FBS was prepared beforehand by heating FBS at 56° C. for 1 h, incubating with sheep red blood cells at 0.5% (v/v) for 1 h and then filtering the FBS with a […]. The T-cell depleted, mononucleated cells were recovered using Ficoll hypaque and were maintained in α-MEM supplemented with 20% FBS and 10% 5637 ? nditioned media. 5637 conditioned media ? s previously harvested from confluent 5637 cells after a 3 day incubation. Normal bone marrow from bone marrow transplant donor was collected following informed consent according to institutional guidelines.
Approximately 20 mg of each compound was dissolved in 5 mL of ACS grade acetone (Sigma) using a 5 mL volumetric flask. Stock solutions of the compounds were stored in the dark at −20° C. Compounds were diluted prior to each experiment.
Adherent cells were seeded at 67×10^3 cells/mL in a 96 well plate (Falcon, Mississauga, Ontario) the day prior to exposure to compound. Suspension cells were seeded at 27×10^4 cells/mL in a 96 well plate the day of exposure to compound. Mononucleated, T-cell depleted normal bone marrow cells were seeded at 67×10^4 cells/mL in a 96 well plate the day of exposure to compound. Compounds and solvent control were added to cells and assayed in triplicate or sextuplet. Following 48 h of incubation at 37° C. with 5% CO2, 40 μL of a 5 mg/mL solution of 3-[4,5-dimethylthiazol-2-yl]-2,5-diphenyltetrazolium bromide (MTT) substrate (Sigma) in Dulbecco's phosphate-buffered saline (D-PBS) was added. After 4 h of incubation at 37° C. with 5% CO2, the resulting violet formazan precipitate was solubilized by the addition of 80 μL of a 0.01 M HCI, 10% sodium dodecyl sulfate (SDS; Sigma) solution overnight at 37° C. with 5% CO2. The plates were then analyzed using the BioRad Benchmark Microplate Reader (BioRad Laboratories, Hercules, Calif.) at 570 nm to determine the optical density of the samples. MTT data was analyzed using Prism 3.0 (GraphPad Software, Inc., San Diego, Calif.) by the Chou-Talalay method. MTT graphs shown are a representative experiment.
Adherent cells were seeded at 67×10^3 cells/mL in a 96 well plate (Falcon, Mississauga, Ontario) the day prior to exposure to compound. Suspension cells were seeded at 27×10^4 cells/mL in a 96 well plate the day of exposure to compound. Mononucleated, T-cell depleted normal bone marrow cells were seeded at 67×10^4 cells/mL in a 96 well plate the day of exposure to compound. Compounds and solvent control were added to cells and assayed in triplicate or sextuplet. […]

[2] = test system: B1 leukemic cell line; assay: Fixed propidium iodide staining, flow cytometry; conditions: 48 h
[3] = test system: G2 leukemic cell line; assay: Fixed propidium iodide staining, flow cytometry; conditions: 48 h
[4] = test system: W1 leukemic cell line; assay: Fixed propidium iodide staining, flow cytometry; conditions: 48 h

Compound: CSSCS(=O)(=O)c1ccc(C)cc1 [Compound C, α-p-toluenesulfonyl dimethyl disulphide]
- IC50 ([1]; B1): 13 µM

Compound: CSCSSC [Compound N, 2,3,5-trithiahexane]
- IC50 ([1]; Homo sapiens): 94.4 µM
- % G2 increase (Fixed PI) ([2]; dose 50 uM): +2%
- % G2 increase (Fixed PI) ([2]; dose 150 uM): −1%
- % pre-G1 (Fixed PI) ([2]; dose 150 uM): 35%
- % G2 increase (Fixed PI) ([3]; dose 50 uM): +8%
- % pre-G1 (Fixed PI) ([3]; dose 50 uM): 16%
- % G2 increase (Fixed PI) ([3]; dose 150 uM): +8%
- % pre-G1 (Fixed PI) ([3]; dose 150 uM): 29%
- % G2 increase (Fixed PI) ([4]; dose 50 uM): +10%
- % pre-G1 (Fixed PI) ([4]; dose 50 uM): 22%
- % pre-G1 (Fixed PI) ([4]; dose 150 uM): 33%

Compound: CSSCC(=O)c1ccccc1 [Compound P, phenacyl methyl disulphide]
- IC50 ([1]; Homo sapiens, B1): 94.4 µM
- % pre-G1 (Fixed PI) ([2]; dose 50 uM): 52%
- % pre-G1 (Fixed PI) ([2]; dose 150 uM): 80%
- % pre-G1 (Fixed PI) ([3]; dose 50 uM): 6%
- % pre-G1 (Fixed PI) ([3]; dose 150 uM): 63%
- % pre-G1 (Fixed PI) ([4]; dose 50 uM): 14%
- % pre-G1 (Fixed PI) ([4]; dose 150 uM): 55%

The next lines start with results.

- IC50 ([1]; Homo sapiens, B1): 14.3 µM
Compound: CCC(=O)OCSSc1ccccc1 [Compound Q, 1-phenyl-1,2-dithiapropyl propionate]
- % G2 increase (Fixed PI) ([2]; dose 20 uM): 0%
- % pre-G1 (Fixed PI) ([2]; dose 20 uM): 5%
- % G2 increase (Fixed PI) ([2]; dose 40 uM): −3%
- % pre-G1 (Fixed PI) ([2]; dose 40 uM): 20%
- % G2 increase (Fixed PI) ([3]; dose 20 uM): −1%
- % pre-G1 (Fixed PI) ([3]; dose 20 uM): 31%
- % G2 increase (Fixed PI) ([3]; dose 40 uM): −3%
- % pre-G1 (Fixed PI) ([3]; dose 40 uM): 55%
- % G2 increase (Fixed PI) ([4]; dose 20 uM): +4%
- % pre-G1 (Fixed PI) ([4]; dose 20 uM): 20%
- % G2 increase (Fixed PI) ([4]; dose 40 uM): +12%
- % pre-G1 (Fixed PI) ([4]; dose 40 uM): 49%

- IC50 ([1]; Homo sapiens, B1): 4.3 µM
Compound: CS(=O)(=O)CSSc1ccccc1 [E, 5-phenyl-2,4,5-trithiapentane 2,2-dioxide]

- IC50 ([1]; Homo sapiens, B1): 12.7 µM
Compound: CSSc1ccc([N+](=O)[O-])cc1 [M, methyl p-nitrophenyl disulphide]
- % pre-G1 (Fixed PI) ([2]; dose 20 uM): 70%
- % pre-G1 (Fixed PI) ([2]; dose 40 uM): 76%
- % pre-G1 (Fixed PI) ([3]; dose 20 uM): 10%
- % pre-G1 (Fixed PI) ([3]; dose 40 uM): 43%
- % pre-G1 (Fixed PI) ([4]; dose 20 uM): 9%
- % pre-G1 (Fixed PI) ([4]; dose 40 uM): 28%
